Measured values taken from the supplement of paper PMC13207355.

Tests used:
Conditions in all cases: exposure time: 72 h
[1] = tested on: E28 (patient-derived glioblastoma stem cells of classical subtype); assay: phenotypic distance (Euclidean, principal components) from DMSO controls (arbitrary units); higher = stronger morphological change
[2] = tested on: E31 (patient-derived glioblastoma stem cells of proneural subtype); assay: as above
[3] = tested on: E21 (patient-derived glioblastoma stem cells of mesenchymal subtype); assay: as above
[4] = tested on: E57 (patient-derived glioblastoma stem cells of mesenchymal subtype); assay: as above
[5] = tested on: E34 (patient-derived glioblastoma stem cells of proneural subtype); assay: as above
[6] = tested on: FT3469 (normal neural stem cell line); assay: as above
[7] = tested on: E13 (patient-derived glioblastoma stem cells of classical subtype); assay: as above
[8] = tested on: E28; assay: surviving fraction (nuclei count normalised to DMSO); higher = more cells surviving (less toxic)
[9] = tested on: E31; assay: as above
[10] = tested on: E21; assay: as above
[11] = tested on: E57; assay: as above
[12] = tested on: E34; assay: as above
[13] = tested on: FT3469; assay: as above
[14] = tested on: E13; assay: as above
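Throughout, for phenotypic distance (Euclidean, principal components) from DMSO controls: cell Painting imaging in 384-well plates, CellProfiler features reduced to at least 20 principal components, Euclidean distance versus same-plate DMSO vehicle wells (0.1% v/v), median over six images per well.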
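Throughout, for surviving fraction (nuclei count normalised to DMSO): nuclei counted by high-content imaging of Hoechst-stained cells in laminin-coated 384-well plates, relative to 0.1% DMSO vehicle wells, with staurosporine as cell-death control.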

COc1nc(C)nc(Cl)c1NC1=NCCN1 [Moxonidine]
Conditions	phenotypic distance	surviving fraction
[1], 4.1 nM	0.486	–
[1], 12.3 nM	0.819	–
[1], 37 nM	0.764	–
[1], 111.1 nM	0.711	–
[1], 333.3 nM	0.733	–
[1], 1000 nM	0.573	–
[1], 3000 nM	0.781	–
[2], 4.1 nM	0.413	–
[2], 12.3 nM	0.823	–
[2], 37 nM	0.773	–
[2], 111.1 nM	0.902	–
[2], 333.3 nM	0.598	–
[2], 1000 nM	0.599	–
[2], 3000 nM	0.717	–
[3], 4.1 nM	0.506	–
[3], 12.3 nM	0.442	–
[3], 37 nM	0.528	–
[3], 111.1 nM	1.03	–
[3], 333.3 nM	0.334	–
[3], 1000 nM	0.69	–
[3], 3000 nM	0.274	–
[4], 4.1 nM	0.464	–
[4], 12.3 nM	0.657	–
[4], 37 nM	0.543	–
[4], 111.1 nM	0.801	–
[4], 333.3 nM	0.46	–
[4], 1000 nM	0.757	–
[4], 3000 nM	0.505	–
[5], 4.1 nM	0.347	–
[5], 12.3 nM	0.861	–
[5], 37 nM	0.936	–
[5], 111.1 nM	0.523	–
[5], 333.3 nM	0.639	–
[5], 1000 nM	0.533	–
[5], 3000 nM	1.09	–
[6], 4.1 nM	0.479	–
[6], 12.3 nM	0.821	–
[6], 37 nM	0.541	–
[6], 111.1 nM	0.878	–
[6], 333.3 nM	0.406	–
[6], 1000 nM	0.742	–
[6], 3000 nM	0.873	–
[7], 4.1 nM	0.65	–
[7], 12.3 nM	0.585	–
[7], 37 nM	0.647	–
[7], 111.1 nM	0.433	–
[7], 333.3 nM	0.523	–
[7], 1000 nM	0.446	–
[7], 3000 nM	0.37	–
[8], 4.1 nM	–	0.996
[8], 12.3 nM	–	1.06
[8], 37 nM	–	0.904
[8], 111.1 nM	–	1.13
[8], 333.3 nM	–	0.848
[8], 1000 nM	–	1.05
[8], 3000 nM	–	0.825
[9], 4.1 nM	–	1
[9], 12.3 nM	–	1.18
[9], 37 nM	–	0.879
[9], 111.1 nM	–	1.15
[9], 333.3 nM	–	0.956
[9], 1000 nM	–	1.21
[9], 3000 nM	–	1.06
[10], 4.1 nM	–	1.03
[10], 12.3 nM	–	0.94
[10], 37 nM	–	0.924
[10], 111.1 nM	–	1.12
[10], 333.3 nM	–	1.1
[10], 1000 nM	–	1.06
[10], 3000 nM	–	0.991
[11], 4.1 nM	–	1.06
[11], 12.3 nM	–	0.999
[11], 37 nM	–	1.06
[11], 111.1 nM	–	1.03
[11], 333.3 nM	–	0.978
[11], 1000 nM	–	0.975
[11], 3000 nM	–	1.04
[12], 4.1 nM	–	0.953
[12], 12.3 nM	–	0.957
[12], 37 nM	–	0.962
[12], 111.1 nM	–	1.07
[12], 333.3 nM	–	1.26
[12], 1000 nM	–	0.981
[12], 3000 nM	–	0.699
[13], 4.1 nM	–	1.03
[13], 12.3 nM	–	1.1
[13], 37 nM	–	1.25
[13], 111.1 nM	–	1.04
[13], 333.3 nM	–	1.26
[13], 1000 nM	–	1.18
[13], 3000 nM	–	1.38
[14], 4.1 nM	–	0.843
[14], 12.3 nM	–	1.02
[14], 37 nM	–	0.886
[14], 111.1 nM	–	0.915
[14], 333.3 nM	–	0.908
[14], 1000 nM	–	0.948
[14], 3000 nM	–	0.923

Nc1nc(=O)c2nc(CNc3ccc(C(=O)N[C@@H](CCC(=O)O)C(=O)O)cc3)cnc2[nH]1 [Folic acid]
Conditions	phenotypic distance	surviving fraction
[1], 4.1 nM	0.522	–
[1], 12.3 nM	0.383	–
[1], 37 nM	0.987	–
[1], 111.1 nM	0.572	–
[1], 333.3 nM	0.378	–
[1], 1000 nM	0.745	–
[1], 3000 nM	0.583	–
[2], 4.1 nM	0.277	–
[2], 12.3 nM	0.448	–
[2], 37 nM	0.256	–
[2], 111.1 nM	0.408	–
[2], 333.3 nM	0.439	–
[2], 1000 nM	0.452	–
[2], 3000 nM	0.335	–
[3], 4.1 nM	0.612	–
[3], 12.3 nM	0.186	–
[3], 37 nM	0.499	–
[3], 111.1 nM	0.624	–
[3], 333.3 nM	0.464	–
[3], 1000 nM	0.432	–
[3], 3000 nM	0.539	–
[4], 4.1 nM	0.364	–
[4], 12.3 nM	0.555	–
[4], 37 nM	0.5	–
[4], 111.1 nM	0.927	–
[4], 333.3 nM	0.637	–
[4], 1000 nM	0.333	–
[4], 3000 nM	0.748	–
[5], 4.1 nM	1.01	–
[5], 12.3 nM	0.395	–
[5], 37 nM	0.531	–
[5], 111.1 nM	0.763	–
[5], 333.3 nM	0.579	–
[5], 1000 nM	0.38	–
[5], 3000 nM	0.822	–
[6], 4.1 nM	0.931	–
[6], 12.3 nM	0.68	–
[6], 37 nM	0.676	–
[6], 111.1 nM	0.509	–
[6], 333.3 nM	0.439	–
[6], 1000 nM	1.06	–
[6], 3000 nM	0.675	–
[7], 4.1 nM	0.778	–
[7], 12.3 nM	0.355	–
[7], 37 nM	0.501	–
[7], 111.1 nM	0.396	–
[7], 333.3 nM	0.695	–
[7], 1000 nM	0.593	–
[7], 3000 nM	0.805	–
[8], 4.1 nM	–	0.971
[8], 12.3 nM	–	1.05
[8], 37 nM	–	1.11
[8], 111.1 nM	–	0.954
[8], 333.3 nM	–	1.01
[8], 1000 nM	–	1.31
[8], 3000 nM	–	0.925
[9], 4.1 nM	–	1.13
[9], 12.3 nM	–	0.968
[9], 37 nM	–	0.961
[9], 111.1 nM	–	0.969
[9], 333.3 nM	–	1.03
[9], 1000 nM	–	1.14
[9], 3000 nM	–	0.872
[10], 4.1 nM	–	0.915
[10], 12.3 nM	–	1.07
[10], 37 nM	–	1
[10], 111.1 nM	–	1.07
[10], 333.3 nM	–	1.01
[10], 1000 nM	–	1.07
[10], 3000 nM	–	0.972
[11], 4.1 nM	–	1.03
[11], 12.3 nM	–	1.03
[11], 37 nM	–	0.994
[11], 111.1 nM	–	0.948
[11], 333.3 nM	–	1.01
[11], 1000 nM	–	1.03
[11], 3000 nM	–	0.903
[12], 4.1 nM	–	1.15
[12], 12.3 nM	–	1.03
[12], 37 nM	–	0.979
[12], 111.1 nM	–	1.12
[12], 333.3 nM	–	0.974
[12], 1000 nM	–	1.04
[12], 3000 nM	–	0.925
[13], 4.1 nM	–	1.16
[13], 12.3 nM	–	1.03
[13], 37 nM	–	1.12
[13], 111.1 nM	–	1.01
[13], 333.3 nM	–	1.05
[13], 1000 nM	–	1.1
[13], 3000 nM	–	0.939
[14], 4.1 nM	–	0.982
[14], 12.3 nM	–	1.06
[14], 37 nM	–	0.964
[14], 111.1 nM	–	1
[14], 333.3 nM	–	1.17
[14], 1000 nM	–	1.02
[14], 3000 nM	–	1.21

C[C@@H](O[C@H]1OCCN(Cc2n[nH]c(=O)[nH]2)[C@H]1c1ccc(F)cc1)c1cc(C(F)(F)F)cc(C(F)(F)F)c1 [Aprepitant]
Conditions	phenotypic distance	surviving fraction
[1], 4.1 nM	0.614	–
[1], 12.3 nM	0.686	–
[1], 37 nM	0.613	–
[1], 111.1 nM	0.671	–
[1], 333.3 nM	0.788	–
[1], 1000 nM	0.862	–
[1], 3000 nM	0.675	–
[2], 4.1 nM	0.696	–
[2], 12.3 nM	1.23	–
[2], 37 nM	0.463	–
[2], 111.1 nM	0.647	–
[2], 333.3 nM	1.03	–
[2], 1000 nM	0.986	–
[2], 3000 nM	1.02	–
[3], 4.1 nM	3.49	–
[3], 12.3 nM	1.08	–
[3], 37 nM	0.937	–
[3], 111.1 nM	0.517	–
[3], 333.3 nM	0.679	–
[3], 1000 nM	0.478	–
[3], 3000 nM	1.36	–
[4], 4.1 nM	0.607	–
[4], 12.3 nM	0.891	–
[4], 37 nM	0.573	–
[4], 111.1 nM	0.373	–
[4], 333.3 nM	0.479	–
[4], 1000 nM	1.04	–
[4], 3000 nM	1.13	–
[5], 4.1 nM	0.513	–
[5], 12.3 nM	0.635	–
[5], 37 nM	0.742	–
[5], 111.1 nM	0.53	–
[5], 333.3 nM	0.573	–
[5], 1000 nM	0.615	–
[5], 3000 nM	1.13	–
[6], 4.1 nM	0.824	–
[6], 12.3 nM	0.817	–
[6], 37 nM	0.96	–
[6], 111.1 nM	0.816	–
[6], 333.3 nM	0.735	–
[6], 1000 nM	0.537	–
[6], 3000 nM	0.788	–
[7], 4.1 nM	0.787	–
[7], 12.3 nM	0.437	–
[7], 37 nM	0.522	–
[7], 111.1 nM	0.344	–
[7], 333.3 nM	0.93	–
[7], 1000 nM	0.532	–
[7], 3000 nM	1.13	–
[8], 4.1 nM	–	0.85
[8], 12.3 nM	–	1.09
[8], 37 nM	–	0.982
[8], 111.1 nM	–	1.03
[8], 333.3 nM	–	0.935
[8], 1000 nM	–	1.03
[8], 3000 nM	–	0.879
[9], 4.1 nM	–	1.03
[9], 12.3 nM	–	0.789
[9], 37 nM	–	1.01
[9], 111.1 nM	–	0.981
[9], 333.3 nM	–	1.07
[9], 1000 nM	–	1.04
[9], 3000 nM	–	1
[10], 4.1 nM	–	1.02
[10], 12.3 nM	–	0.857
[10], 37 nM	–	0.96
[10], 111.1 nM	–	1.02
[10], 333.3 nM	–	1.02
[10], 1000 nM	–	0.955
[10], 3000 nM	–	0.913
[11], 4.1 nM	–	0.865
[11], 12.3 nM	–	1.03
[11], 37 nM	–	1.02
[11], 111.1 nM	–	0.945
[11], 333.3 nM	–	0.985
[11], 1000 nM	–	1.07
[11], 3000 nM	–	0.96
[12], 4.1 nM	–	1.01
[12], 12.3 nM	–	1.01
[12], 37 nM	–	0.914
[12], 111.1 nM	–	1.03
[12], 333.3 nM	–	0.934
[12], 1000 nM	–	0.948
[12], 3000 nM	–	0.963
[13], 4.1 nM	–	0.843
[13], 12.3 nM	–	0.823
[13], 37 nM	–	0.935
[13], 111.1 nM	–	0.829
[13], 333.3 nM	–	0.999
[13], 1000 nM	–	0.797
[13], 3000 nM	–	0.929
[14], 4.1 nM	–	0.928
[14], 12.3 nM	–	0.902
[14], 37 nM	–	0.98
[14], 111.1 nM	–	0.996
[14], 333.3 nM	–	0.901
[14], 1000 nM	–	0.903
[14], 3000 nM	–	0.856
